Experiment: Human HepG2 cell viability assay in 384 well format
Assay type: toxicity, cell-based
Design: dose 125 nL, time 70.5 hour; cytotoxicity at 70.5 h: concentration not given beside the values
Conditions: HepG2 cells, read-out: Inhibition

| SMILES | cytotoxicity at 70.5 h [%] |
| --- | --- |
| COc1ccc(OC2CCN(C(=O)c3ccc(C(C)=O)s3)CC2)cc1 | -6.92 |
| CN(C)c1ncc2c(n1)CCCC2NC(=O)C1CC1 (centres undefined) | -11.8 |
| Cc1cnccc1CN(C)Cc1c[nH]nc1-c1ccc(F)cc1F | 3.5 |
| CCOc1cccc(CNC2CCCN(Cc3noc(C)n3)C2)c1 (centres undefined) | -12.1 |
| O=C(c1cccs1)N1CCOCC2(C1)CN(c1ccccc1)C(=O)CO2 (centres undefined) | -9.8 |
| CN(CCS(=O)(=O)c1cc(Cl)ccc1Cl)CC(N)=O | -0.37 |
| CCn1cnnc1CNC(=O)N1CCOC(c2ccccc2Cl)C1 (centres undefined) | -3.84 |
| O=C(c1ccccn1)N1CCC(S(=O)(=O)c2ccccc2)C1 (centres undefined) | -9.33 |
| COc1cc(C)nc(N2CCN(C(=O)COCC(F)(F)F)CC2)n1 | -15.4 |
| CNC(=O)[C@@H]1C[C@H]2CN(Cc3c(C)noc3C)C[C@H]2N1C(C)C | -7.3 |
| COc1ncnc(N)c1CNCC(C)Oc1ccccc1Cl (centres undefined) | -3.69 |
| COc1c(C2CCCN2Cc2nnc(C3CC3)o2)c(C)nn1C (centres undefined) | -4.73 |
| Cc1cccc(-n2cc(C(=O)N3CCCC(n4ccnc4)C3)nn2)c1 (centres undefined) | 15.2 |
| Cc1ccccc1-n1cnnc1SCCOCC1CCCO1 (centres undefined) | -5 |
| O=C(NC1CCCC1)c1nc(COc2ccc3c(c2)OCO3)no1 | -9.86 |
| CC(C)N1CCC(Cc2cncc(-c3cccc(C(=O)O)c3)n2)CC1 | 10.8 |
| CC1COCCN1C(=O)Nc1cnc2c(cnn2C(C)C)c1 (centres undefined) | -2.52 |
| O=C(COCCOc1ccccc1)N1CCCC(n2ccnc2)C1 (centres undefined) | -4.49 |
| Cn1cc(C(=O)N2CCC(Cc3nccs3)CC2)cn1 | 22.3 |
| OC[C@@H](O)CN(CCC(F)(F)F)c1ncccn1 | 5.67 |
| CNS(=O)(=O)c1cccc(C(=O)N(C)Cc2ccsc2)c1 | -7.55 |
| CN(CC(=O)N(C)C(c1cccnc1)c1ccc(F)c(F)c1)C1CC1 (centres undefined) | 22.6 |
| CC(=O)N1Cc2ccccc2C[C@H]1C(=O)N(C)CCc1ccccn1 | 19.3 |

| SMILES | cytotoxicity at 70.5 h [%] |
| --- | --- |
| CC(C)c1nccn1C1CCCN(C(=O)c2ccc3c(c2)COC3)C1 (centres undefined) | -8.53 |
| CC[C@@]1(O)CCN(C(=O)CCSCc2ccc(F)cc2)C[C@H]1O | 14.3 |
| CN(Cc1ccco1)C(=O)CN1C(=O)c2ccccc2C1=O | -2.38 |
| Cc1nc(C(=O)N2CCN(S(C)(=O)=O)CC2)c(-c2ccccc2Cl)s1 | 16 |
| c1ccc(Cn2ccnc2CNCC2CCCN2c2cccnn2)cc1 (centres undefined) | 4.91 |
| CC(=O)N(Cc1noc(C)n1)C1CCN(CC2(O)CCCCC2)C1 (centres undefined) | -27.3 |
| O=C1CC(C(=O)N2CCc3sccc3C2)CN1Cc1cccnc1 (centres undefined) | 2.13 |
| N#CCSCCCN1CCN(C(=O)c2ccc(Cl)cc2)CC1 | 6.83 |
| Cc1nc(CCNC(=O)C2CC(=O)N(C(C)(C)C)C2)sc1C (centres undefined) | -8.11 |
| Cn1ccc(C(=O)N2C[C@@H]3CCN(c4cnccn4)C[C@@H]3C2)n1 | -9.79 |
| CCN1CC(COC(=O)c2cc(Br)ccc2F)CC1=O (centres undefined) | 0.441 |
| CCn1ncc(CN2CCC(c3ncc(Cl)cc3S(C)(=O)=O)CC2)c1C | -8.43 |
| Cn1ccnc1CN1CCC(CCC(=O)Nc2ccccc2Cl)CC1 | -2.64 |
| CN1CCN(c2ccc(NS(=O)(=O)c3ccc(Cl)s3)cc2C(=O)O)CC1 | -2.11 |
| COCCN1CCCC(c2ncc(C(=O)N3CCOCC3)c(C)n2)C1 (centres undefined) | 1.77 |
| CN(C)C[C@@H]1CCC[C@@H]2CN(c3ncccn3)C[C@@H]21 | -13 |
| CC(=O)NCC(=O)N1CCc2nc(-c3ccccc3)nc(C)c2CC1 | -5.16 |
| COc1cccc(Cn2ncnc2COC(C)C)c1 | -15.5 |
| CNC(=O)CN([C@H]1C[C@H]2CCOC[C@H]2C1)S(=O)(=O)c1ccccc1 | -5.55 |
| COCc1nc(NC(C)Cc2cc(C)n[nH]2)c2cnn(C)c2n1 (centres undefined) | -0.0562 |
| CCn1cc(NC(=O)CN2CCC(Oc3ccccc3C)CC2)c(C)n1 | -2.26 |
| CC(=O)N1CCCCC1c1cc(C(=O)N2CCOCC2)[nH]n1 (centres undefined) | -7.33 |
| Cc1cc(C(F)(F)F)nc(C2(C)CCCN2CC(N)=O)n1 (centres undefined) | 11.5 |

| SMILES | cytotoxicity at 70.5 h [%] |
| --- | --- |
| CCCn1nc(-c2nc(COC)no2)ccc1=O | -6.41 |
| O=C1CO[C@@H]2CN(CC3CCOC3)C[C@H]2N1Cc1cccc(F)c1 (some centres undefined) | -6.08 |
| Cc1ccc(-c2nc(CCNC(=O)NC3CCN(C)CC3)co2)cc1 | -4.33 |
| COc1cccc2c1OCC(CNc1cc(N)nc(SC)n1)C2 (centres undefined) | -8.3 |
| COc1cc(C#N)ccc1OCCN1CCC(n2ccnc2)CC1 | -7.5 |
| CC(O)CN1CCN(C(=O)c2ccc(N3CCCC3)nn2)CC1 (centres undefined) | 1.72 |
| CCOCCn1c(=O)n(CCC(C)C)c2ncc(C(=O)O)cc21 | 1.96 |
| Cc1ccc(C)c(C(=O)N2CCOC(CCN(C)C)C2)c1 (centres undefined) | -9.2 |
| Cc1occc1C(=O)N1CCCC(c2nncn2C)C1 (centres undefined) | -6.07 |
| O=C(Cn1nc(-c2ccc(F)cc2)oc1=O)NCc1ccncc1 | -12.1 |
| Cc1ccc([C@H]2CN(C(C)C)C[C@@H]2NS(=O)(=O)N2CCOCC2)o1 | -5.29 |
| COc1nccc(N2CC[C@@H](N3CCCCCC3)[C@H](O)C2)c1C#N | -11.1 |
| COc1cccc(CC(=O)N2CC[C@H]3[C@@H]2CCC(=O)N3C)c1 | 4.41 |
| COCCN(Cc1ccoc1)C(=O)CSc1ccc(F)cc1 | -5.61 |
| O=C(c1ccc(-n2ccnc2)nn1)N1CCCC1CCc1ccccc1 (centres undefined) | -19.5 |
| CC(C)(C)C(=O)N1C[C@@H]2COC[C@]2(c2nnc(C3CC3)o2)C1 | -8.33 |
| COc1ncnc2c1CCN(C(=O)NCc1cccc(F)c1)CC2 | -6.04 |
| Cn1nccc1CCC(=O)N1CCOC(c2cnccn2)C1 (centres undefined) | -12.6 |
| COc1ccc(S(=O)(=O)C2CCN(C(=O)c3cc(C)cs3)CC2)cc1 | 1.95 |
| CC(C)CN1C(=O)CC[C@H]2CN(C(=O)Cn3ccc(=O)cc3)CC[C@H]21 | 21.4 |
| Cc1n[nH]c2c1C(c1ccncc1)SCC(=O)N2 (centres undefined) | 19.3 |
| CCOC(=O)c1ccc(S(=O)(=O)NCC(CC)N2CCCC2)cc1 (centres undefined) | -5.87 |
| Cc1ncsc1C(=O)NCc1cccs1 | -16.4 |

| SMILES | cytotoxicity at 70.5 h [%] |
| --- | --- |
| COc1cc2c(nn1)CCN(Cc1ncc(C(C)(C)C)o1)C2 | -5.34 |
| CC(C(=O)Nc1cccc(Cl)c1SC(F)F)S(C)(=O)=O (centres undefined) | -3.11 |
| Cc1nc2c(N3CCN(CCO)CC3)nc(N)nc2n1C | 0.799 |
| COc1c[nH]c(C(=O)Nc2nc(C)cs2)cc1=O | -5.81 |
| Cc1nc(CC(=O)N2CCN(C)CC2c2ccccc2)cs1 (centres undefined) | -0.955 |
| CCCOc1cc(CNC(=O)Nc2ccccn2)ccn1 | 45.7 |
| O=C(NCCCN1CCc2ccccc2C1)c1cccnc1O | -11.9 |
| CCC(C)(NCC(=O)NC(=O)NC)c1nccs1 (centres undefined) | -4.72 |
| CCN1CCN(C(=O)NCCOc2ccc3c(c2)OCO3)CC1 | -11.4 |
| OCCCN(CCc1cccc(F)c1)C1CC1 | -4.09 |
| COc1ncc(NCc2cc(C#N)cs2)cc1C(N)=O | -5.52 |
| N#CCc1ccc(NC(=O)Cn2cc(I)cn2)cc1 | -9.71 |
| Cc1cc(C(=O)N2CCCCC2c2nc3cc(F)ccc3[nH]2)no1 (centres undefined) | 27.9 |
| CC(C)C(=O)N1CCC12CCCN(C(=O)c1ccnnc1)C2 (centres undefined) | -6.79 |
| CCN(CC(=O)Nc1cc(Cl)ccc1C)C(=O)c1cnccn1 | 0.456 |
| CN(C)C(=O)[C@@H]1C[C@@H]2CCN(Cc3ccncc3)C[C@@H]2O1 | -11.6 |
| Cc1ccc(CNCCCNS(C)(=O)=O)c(Br)c1 | 4 |
| Cc1ccc(C(=O)N(C)Cc2ccc3c(c2)OCCO3)c(=O)[nH]1 | 18.5 |
| O=C(c1ccco1)N1C(CN2CCOCC2)[C@]2(O)CC[C@H]1CC2 (some centres undefined) | -6 |
| O=C(CCc1ccccn1)N1CCCC1 | -3.29 |
| CC1CCCN(c2ccccc2OCC(=O)NC2CCOCC2)C1 (centres undefined) | 28.3 |
| CC(C)(C)NC(=O)CNC(=O)CCc1ccccc1Br | -8.13 |
| Cc1ccccc1-c1noc(C2CC(C(C)C)=NO2)n1 (centres undefined) | -0.419 |

| SMILES | cytotoxicity at 70.5 h [%] |
| --- | --- |
| CN(Cc1ccc(C2CC(=O)Nc3n[nH]cc32)o1)S(C)(=O)=O (centres undefined) | 9.86 |
| COCc1ccc(C(=O)N2CCC(c3nccn3CC3CC3)CC2)o1 | -0.956 |
| CC1CN(Cc2ccccc2)CCCN1CCCS(C)(=O)=O (centres undefined) | -4.81 |
| COCc1ccccc1CNc1cc(N2CCCC2CO)ncn1 (centres undefined) | -18.2 |
| Cc1cn2nc(N3CCCN(Cc4noc(C)n4)CC3)sc2n1 | -4.93 |
| Cc1cc(C(=O)NCc2cnn(C)c2C)nc(N2CCCCCC2)n1 | -3.96 |
| CCc1cc(N(C)Cc2[nH]nc3c2CCC3)nc(N2CCOCC2)n1 | -15.5 |
| CC(=O)c1cnc(N(C)Cc2cnc3ccccc3n2)nc1C | -5.98 |
| CN(C)Cc1noc2c1CN(C(=O)c1ccncc1)CC2 | 5.83 |
| c1ccc(CC2(CNCc3ncc[nH]3)CCC2)cc1 | -2.49 |
| O=C(CN1CCOC(Cn2cccn2)C1)NCc1cccs1 (centres undefined) | -8.73 |
| N#CCCCS(=O)(=O)N1CCC(CSc2ccccc2)C1 (centres undefined) | -9.53 |
| Cc1nc(C)n(CC2CCCCN2CCCC#N)n1 (centres undefined) | 6.75 |
| COCCN(Cc1coc(-c2cccc(Cl)c2)n1)C1CC1 | -4.43 |
| COc1cc(CC(=O)Nc2cccc(C(=O)N(C)C)n2)ccc1C | 46.5 |
| NC(=O)C1CCN(C(=O)c2cc(S(=O)(=O)N3CCCC3)cs2)CC1 | -8.68 |
| Cc1ccsc1C(=O)N1CC(C(=O)N2CCOCC2)C2(CCOCC2)C1 (centres undefined) | 24.8 |
| Cc1noc(C)c1S(=O)(=O)NC(=O)COc1ccc2c(c1)CCC2 | -13.5 |
| CC(C)C(=O)NC1CCCN(C(=O)c2cc(Cl)ccc2O)C1 (centres undefined) | 15.5 |
| CCN(C)C[C@H]1CC[C@@H](Cc2ccc3c(cnn3C)c2)O1 | 11.5 |
| Cc1ccc(N2CCC3(CCC(=O)N3Cc3ccncc3)CC2)nn1 | 0.778 |
| CCc1c(C)nc2ccccc2c1N1CCC(NC(C)=O)CC1 | -6.65 |

Reference: ChEMBL document CHEMBL3507680, “University of Dundee, Gates Library screen for HepG2 cell viability”
